Test results from ChEMBL document CHEMBL3885861, “Open TG-GATES”.

Species on record: Rattus norvegicus
Experiment: Open TG-GATES - Regimen: Daily Repeat
Type: toxicity, organism-based, Sprague-Dawley
Parameters: regimen Daily Repeat, gender Male, age 6 weeks
Conditions: in vivo, po, 0 mg/kg, route gavage, dose level Control; for APTT / Bas / Eos / Fbg / Hb / Ht / Lym / MCH / MCHC / MCV / Mono / Neu / PT / Plat / RBC / Ret / WBC: tissue Blood; for KIDNEY_L / KIDNEY_R / KIDNEY_TOTAL: tissue Kidney; for LIVER: tissue Liver; for A/G / ALP / ALT / AST / BUN / CRE / Ca / Cl / DBIL / GLC / IP / K / LDH / Na / PL / RALB / TBIL / TC / TG / TP / gamma-GTP: tissue Plasma

O=C(OC[C@H]1O[C@@H](OC(=O)c2cc(O)c(O)c(OC(=O)c3cc(O)c(O)c(O)c3)c2)[C@H](OC(=O)c2cc(O)c(O)c(OC(=O)c3cc(O)c(O)c(O)c3)c2)[C@@H](OC(=O)c2cc(O)c(O)c(OC(=O)c3cc(O)c(O)c(O)c3)c2)[C@@H]1OC(=O)c1cc(O)c(O)c(OC(=O)c2cc(O)c(O)c(O)c2)c1)c1cc(O)c(O)c(OC(=O)c2cc(O)c(O)c(O)c2)c1 [TANNIC ACID]
TERMINAL_BW (72 h, time 3 day): 216 g | APTT (72 h, time 3 day): 17.1 s | Bas (72 h, time 3 day): 0% | Eos (72 h, time 3 day): 1% | Fbg (72 h, time 3 day): 245.4 mg/dL | Hb (72 h, time 3 day): 13.2 g/dL | Ht (72 h, time 3 day): 39.3% | Lym (72 h, time 3 day): 77.6% | MCH (72 h, time 3 day): 21.8 pg | MCHC (72 h, time 3 day): 33.4% | MCV (72 h, time 3 day): 65.2 fL | Mono (72 h, time 3 day): 6.4% | Neu (72 h, time 3 day): 15% | PT (72 h, time 3 day): 11.7 s | Plat (72 h, time 3 day): 118.4 x10_4/uL | RBC (72 h, time 3 day): 603.8 x10_4/ul | Ret (72 h, time 3 day): 8.3% | WBC (72 h, time 3 day): 101.4 x10_2/uL | KIDNEY_L (72 h, time 3 day): 0.9 g | KIDNEY_R (72 h, time 3 day): 1 g | KIDNEY_TOTAL (72 h, time 3 day): 1.9 g | LIVER (72 h, time 3 day): 10.5 g | A/G (72 h, time 3 day): 2.1 | ALP (72 h, time 3 day): 883.4 IU/L | ALT (72 h, time 3 day): 36.2 IU/L | AST (72 h, time 3 day): 62.2 IU/L | BUN (72 h, time 3 day): 18 mg/dL | CRE (72 h, time 3 day): 0.5 mg/dL | Ca (72 h, time 3 day): 10.9 mg/dL | Cl (72 h, time 3 day): 104.2 meq/L | DBIL (72 h, time 3 day): 0 mg/dL | GLC (72 h, time 3 day): 202 mg/dL | IP (72 h, time 3 day): 8 mg/dL | K (72 h, time 3 day): 4.8 meq/L | LDH (72 h, time 3 day): 62.4 IU/L | Na (72 h, time 3 day): 139.6 meq/L | PL (72 h, time 3 day): 146.8 mg/dL | RALB (72 h, time 3 day): 3.8 g/dL | TBIL (72 h, time 3 day): 0.3 mg/dL | TC (72 h, time 3 day): 75.2 mg/dL | TG (72 h, time 3 day): 112.8 mg/dL | TP (72 h, time 3 day): 5.7 g/dL | gamma-GTP (72 h, time 3 day): 1 IU/L | TERMINAL_BW ([…], time 7 day): 253.1 g | TERMINAL_BW ([…], time 14 day): 306.2 g | TERMINAL_BW ([…], time 28 day): 398.3 g | APTT ([…], time 7 day): 16.7 s | Bas ([…], time 7 day): 0% | Eos ([…], time 7 day): 1% | Fbg ([…], time 7 day): 219.4 mg/dL | Hb ([…], time 7 day): 12.8 g/dL | Ht ([…], time 7 day): 38.2% | Lym ([…], time 7 day): 77.8% | MCH ([…], time 7 day): 21.4 pg | MCHC ([…], time 7 day): 33.5% | MCV ([…], time 7 day): 63.9 fL | Mono ([…], time 7 day): 6.8% | Neu ([…], time 7 day): 14.4% | PT ([…], time 7 day): 11.1 s | Plat ([…], time 7 day): 101 x10_4/uL | RBC ([…], time 7 day): 598 x10_4/ul | Ret ([…], time 7 day): 6.8% | WBC ([…], time 7 day): 131.8 x10_2/uL | APTT ([…], time 14 day): 16 s | Bas ([…], time 14 day): 0% | Eos ([…], time 14 day): 1.2% | Fbg ([…], time 14 day): 251.8 mg/dL | Hb ([…], time 14 day): 13.9 g/dL | Ht ([…], time 14 day): 41.6% | Lym ([…], time 14 day): 78% | MCH ([…], time 14 day): 20.7 pg | MCHC ([…], time 14 day): 33.4% | MCV ([…], time 14 day): 62.1 fL | Mono ([…], time 14 day): 7% | Neu ([…], time 14 day): 14% | PT ([…], time 14 day): 11.5 s | Plat ([…], time 14 day): 125.4 x10_4/uL | RBC ([…], time 14 day): 669.8 x10_4/ul | Ret ([…], time 14 day): 5.3% | WBC ([…], time 14 day): 128.6 x10_2/uL | APTT ([…], time 28 day): 17.3 s | Bas ([…], time 28 day): 0% | Eos ([…], time 28 day): 1% | Fbg ([…], time 28 day): 229 mg/dL | Hb ([…], time 28 day): 14.7 g/dL | Ht ([…], time 28 day): 43.6% | Lym ([…], time 28 day): 84% | MCH ([…], time 28 day): 19.9 pg | MCHC ([…], time 28 day): 33.7% | MCV ([…], time 28 day): 59.2 fL | Mono ([…], time 28 day): 5.2% | Neu ([…], time 28 day): 9.8% | PT ([…], time 28 day): 11.8 s | Plat ([…], time 28 day): 112.4 x10_4/uL | RBC ([…], time 28 day): 738.4 x10_4/ul | Ret ([…], time 28 day): 2.8% | WBC ([…], time 28 day): 144.2 x10_2/uL | KIDNEY_L ([…], time 7 day): 1.1 g | KIDNEY_R ([…], time 7 day): 1.1 g | KIDNEY_TOTAL ([…], time 7 day): 2.2 g | KIDNEY_L ([…], time 14 day): 1.2 g | KIDNEY_R ([…], time 14 day): 1.2 g | KIDNEY_TOTAL ([…], time 14 day): 2.4 g | KIDNEY_L ([…], time 28 day): 1.4 g | KIDNEY_R ([…], time 28 day): 1.4 g | KIDNEY_TOTAL ([…], time 28 day): 2.7 g | LIVER ([…], time 7 day): 12.3 g | LIVER ([…], time 14 day): 14.2 g | LIVER ([…], time 28 day): 17.9 g | A/G ([…], time 7 day): 1.7 | ALP ([…], time 7 day): 813.4 IU/L | ALT ([…], time 7 day): 34.4 IU/L | AST ([…], time 7 day): 60.6 IU/L | BUN ([…], time 7 day): 19 mg/dL | CRE ([…], time 7 day): 0.4 mg/dL | Ca ([…], time 7 day): 10.8 mg/dL | Cl ([…], time 7 day): 103.2 meq/L | DBIL ([…], time 7 day): 0.006 mg/dL | GLC ([…], time 7 day): 205.2 mg/dL | IP ([…], time 7 day): 8.1 mg/dL | K ([…], time 7 day): 4.4 meq/L | LDH ([…], time 7 day): 57 IU/L | Na ([…], time 7 day): 137.8 meq/L | PL ([…], time 7 day): 160.2 mg/dL | RALB ([…], time 7 day): 3.6 g/dL | TBIL ([…], time 7 day): 0.4 mg/dL | TC ([…], time 7 day): 85.4 mg/dL | TG ([…], time 7 day): 119.6 mg/dL | TP ([…], time 7 day): 5.7 g/dL | gamma-GTP ([…], time 7 day): 1 IU/L | A/G ([…], time 14 day): 1.8 | ALP ([…], time 14 day): 806.2 IU/L | ALT ([…], time 14 day): 31.2 IU/L | AST ([…], time 14 day): 58.8 IU/L | BUN ([…], time 14 day): 18.4 mg/dL | CRE ([…], time 14 day): 0.6 mg/dL | Ca ([…], time 14 day): 10.7 mg/dL | Cl ([…], time 14 day): 103.8 meq/L | DBIL ([…], time 14 day): 0.018 mg/dL | GLC ([…], time 14 day): 198 mg/dL | IP ([…], time 14 day): 7.8 mg/dL | K ([…], time 14 day): 4.6 meq/L | LDH ([…], time 14 day): 81 IU/L | Na ([…], time 14 day): 139.6 meq/L | PL ([…], time 14 day): 140.2 mg/dL | RALB ([…], time 14 day): 3.8 g/dL | TBIL ([…], time 14 day): 0.3 mg/dL | TC ([…], time 14 day): 70.2 mg/dL | TG ([…], time 14 day): 115.2 mg/dL | TP ([…], time 14 day): 5.9 g/dL | gamma-GTP ([…], time 14 day): 1 IU/L | A/G ([…], time 28 day): 1.8 | ALP ([…], time 28 day): 563.4 IU/L | ALT ([…], time 28 day): 29.4 IU/L | AST ([…], time 28 day): 56.8 IU/L | BUN ([…], time 28 day): 20.4 mg/dL | CRE ([…], time 28 day): 0.6 mg/dL | Ca ([…], time 28 day): 11 mg/dL | Cl ([…], time 28 day): 105.4 meq/L | DBIL ([…], time 28 day): 0.006 mg/dL | GLC ([…], time 28 day): 221.4 mg/dL | IP ([…], time 28 day): 7.1 mg/dL | K ([…], time 28 day): 4.4 meq/L | LDH ([…], time 28 day): 63.6 IU/L | Na ([…], time 28 day): 139.6 meq/L | PL ([…], time 28 day): 152.6 mg/dL | RALB ([…], time 28 day): 3.9 g/dL | TBIL ([…], time 28 day): 0.2 mg/dL | TC ([…], time 28 day): 73.6 mg/dL | TG ([…], time 28 day): 141.4 mg/dL | TP ([…], time 28 day): 6.2 g/dL | gamma-GTP ([…], time 28 day): 0.6 IU/L
